Assay results reported in paper PMC4124913 (Bioorganic & medicinal chemistry, 2013).

Assays:
Bcr-Abl = Bcr-Abl (Homo sapiens, UniProt P00519); test: Bcr-Abl kinase assay; settings: for ΔΔGbind (exptl): RT ln [IC50(cmpd)/IC50(11a)], 298 K
[1] = tested on: K562 cells expressing Abl; test: In vitro radiotracer accumulation, washout and blocking in K562 cells; assay type: cell-based, human; settings: cell cultures, excess cold STI-571

Sequence of Bcr-Abl (P00519 whole entry): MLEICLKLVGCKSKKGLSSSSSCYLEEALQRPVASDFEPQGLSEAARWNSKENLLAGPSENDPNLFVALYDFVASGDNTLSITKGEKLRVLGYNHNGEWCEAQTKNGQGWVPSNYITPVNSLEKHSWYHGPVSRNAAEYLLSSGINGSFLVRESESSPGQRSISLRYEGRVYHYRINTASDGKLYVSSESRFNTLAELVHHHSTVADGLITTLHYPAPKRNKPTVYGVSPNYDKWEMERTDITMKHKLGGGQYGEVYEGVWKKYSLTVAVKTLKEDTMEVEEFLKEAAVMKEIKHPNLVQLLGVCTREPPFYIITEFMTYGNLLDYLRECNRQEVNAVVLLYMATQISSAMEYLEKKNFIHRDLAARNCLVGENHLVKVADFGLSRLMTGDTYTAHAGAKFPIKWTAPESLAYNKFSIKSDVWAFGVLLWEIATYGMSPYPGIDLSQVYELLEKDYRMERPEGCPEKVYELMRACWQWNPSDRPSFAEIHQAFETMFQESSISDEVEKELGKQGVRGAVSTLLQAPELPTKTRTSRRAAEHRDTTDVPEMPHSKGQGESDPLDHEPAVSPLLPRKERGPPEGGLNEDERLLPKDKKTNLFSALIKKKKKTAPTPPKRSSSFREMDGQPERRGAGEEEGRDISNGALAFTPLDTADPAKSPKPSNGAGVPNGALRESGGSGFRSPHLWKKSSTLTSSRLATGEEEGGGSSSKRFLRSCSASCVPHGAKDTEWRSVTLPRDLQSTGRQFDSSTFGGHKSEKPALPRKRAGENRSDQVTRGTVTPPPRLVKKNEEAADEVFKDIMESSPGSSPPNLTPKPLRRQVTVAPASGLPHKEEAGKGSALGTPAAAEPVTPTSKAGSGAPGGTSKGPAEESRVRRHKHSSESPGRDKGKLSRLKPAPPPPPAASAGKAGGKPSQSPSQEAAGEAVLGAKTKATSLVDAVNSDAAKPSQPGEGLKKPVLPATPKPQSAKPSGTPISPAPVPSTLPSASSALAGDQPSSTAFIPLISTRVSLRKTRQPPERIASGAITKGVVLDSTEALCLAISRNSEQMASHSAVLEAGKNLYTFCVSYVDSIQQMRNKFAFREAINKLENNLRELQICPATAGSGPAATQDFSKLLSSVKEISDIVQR

ΔΔGbind (exptl) (Bcr-Abl) [kcal/mol] | IC50 (Bcr-Abl) [µM] | Compound | binding on addition of excess STI-571 (blocking) [1]
2.44 |  | Cc1ccc(NC(=O)c2ccc(CN3CCN(CCO)CC3)cc2)cc1Nc1nccc(-c2cccnc2)n1 [Compound 11c] | 
 |  | Cc1ccc(NC(=O)c2ccc(CN3CCN(CC[18F])CC3)cc2)cc1Nc1nccc(-c2cccnc2)n1 [Compound 11g] | diminished as excess STI-571 was added
1.47 | 1.3 | Cc1ccc(NC(=O)c2ccc(CN3CCN(CCF)CC3)cc2)cc1Nc1nccc(-c2cccnc2)n1 [Compound 11b] | 
1.10 |  | Cc1ccc(NC(=O)c2ccc(CN3CCN(Cc4ccc(I)cc4)CC3)cc2)cc1Nc1nccc(-c2cccnc2)n1 [Compound 11e] | 
